Laboratory results reported in US20210346331A1, “TRPV4 ACTIVITY INHIBITOR” (KAO CORPORATION, priority 2018, published 2021).

Target: T1, human TRPV4 (Homo sapiens, UniProt Q9HBA0)
T1 construct: expressed in transfected cells; host or cells: HeLa cells, transient transfection with pcDNA3.1 Directional TOPO vector
Experiment: Measurement of intracellular calcium ion influx activity in human TRPV4 expressing cells (HeLa, Fluo4) stimulated with TRPV4 agonist GSK1016790a
Assay type: cell-based
Conditions: for Intracellular Ca^2+ influx rate (%): GSK + solvent = 100%, human TRPV4 expressing HeLa cells, n = 3, Mean ± S.E.; for calcium ion influx caused by the TRPV4 agonist (result in words): summary of Table 1, Dunnett's test vs GSK1016790a + solvent
Procedure: Polymerase chain reaction (PCR) was performed under the following conditions using a primer set comprising the oligonucleotides represented by the following base sequences which were synthesized with reference to published human TRPV4 gene sequences using a cDNA obtained by reverse-transcribing a totalRNA extracted from the Hutu-80 cell, as a template.
The obtained PCR product was purified using the High Pure PCR Product Purification Kit. The human TRPV4 gene expression vector was produced using the purified PCR product and the pcDNA3.1 Directional TOPO Expression Kit.
The HeLa cell was cultured using the DMEM/F12 medium containing 10% of fetal bovine serum. The HeLa cell was seeded in a T-75 cell culture flask at 5×10^5 cells/Flask. After three days of culture, the human TRPV4 gene expression vector (8 μg) produced in the above (2) was transfected into the cell using the TransIT-HeLaMONSTER Transfection Kit and cultured for 1 day.
The cell was detached using the Detachin and seeded at a density of 1.5×10^4 cells/90 μL/well in the DMEM/F12 medium containing 10% of fetal bovine serum on the 96 well Optical bottom plate and cultured for further 1 day.
Measurement of the intracellular calcium ion influx activity was performed using the Calcium Kit II—fluo 4. After the Loading buffer containing the Fluo4-AM and the Hanks' balanced salt solution were mixed at a ratio of 1:1, 180 μL/well of the mixture was added to the human TRPV4 expressing cell produced in the above (3) and incubated at 37° C. for 1 hour. Thereafter, fluorescence intensity (excitation wavelength: 488 nm, fluorescence wavelength: 524 nm) was measured using a fluorescent plate reader FDSS3000 (Hamamatsu Photonics K.K.) at 37° C. every 2 seconds. The GSK1016790a which is the TRPV4 agonist and each of the 4,3′-di-O-methyl-rosmarinic acid, 3′,4′-di-O-methyl-rosmarinic acid, 4,4′-di-O-methyl-rosmarinic acid, and 3,4-di-O-methyl-rosmarinic acid solution prepared in Production Examples as samples were diluted with the Hanks' balanced salt solution, 20 μL/well of the mixed solution thereof (they were mixed just before the addition) was added to the cell after 30 seconds after the start of the measurement, and the change of the fluorescence intensity was measured every 2 seconds until 300 seconds. The GSK1016790a was added so as to have a final concentration of 3 nM.
As a positive control of the TRPV4 activity inhibition, HC067047, which is the TRPV4 antagonist, was added to the cell in a final concentration of 10 μM.
The TRPV4 activity of the samples was calculated by the following equation, assuming that the influx rate of calcium ions by the treatment of the GSK1016790a, which is the TRPV4 agonist, is 100%.
Influx rate of calcium ions (%)=[(Fmax/F0)−(FmaxC2/F0C2)]/[(FmaxC1/FOC1)−(FmaxC2/F0C2)]×100 (Expression 1)
Fmax: The maximum fluorescence intensity of the well to which the GSK1016790a and a sample were added, at from 0 to 300 seconds after the start of the measurement
FmaxC1: The maximum fluorescence intensity of the well to which the GSK1016790a and a solvent were added, at from 0 to 300 seconds after the start of the measurement
FmaxC2: The maximum fluorescence intensity of the well to which only a solvent was added, at from 0 to 300 seconds after the start of the measurement
F0: The fluorescence intensity of the same well as Fmax, immediately after the start of the measurement
F0C1: The fluorescence intensity of the same well as FmaxC1, immediately after the start of the measurement
F0C2: The fluorescence intensity of the well to which only a solvent was added, immediately after the start of the measurement
The influx rates of calcium ions (n=3 for each group) in the case of adding samples were tested using the Dunnett's test by comparing with the case of adding the GSK1016790a+a solvent. […] The results were presented as the average value (Mean)±standard error (S.E.).

[1] = sample 30 μM + GSK1016790a 3 nM
[2] = sample 100 μM + GSK1016790a 3 nM

T1 sequence (Q9HBA0 whole entry): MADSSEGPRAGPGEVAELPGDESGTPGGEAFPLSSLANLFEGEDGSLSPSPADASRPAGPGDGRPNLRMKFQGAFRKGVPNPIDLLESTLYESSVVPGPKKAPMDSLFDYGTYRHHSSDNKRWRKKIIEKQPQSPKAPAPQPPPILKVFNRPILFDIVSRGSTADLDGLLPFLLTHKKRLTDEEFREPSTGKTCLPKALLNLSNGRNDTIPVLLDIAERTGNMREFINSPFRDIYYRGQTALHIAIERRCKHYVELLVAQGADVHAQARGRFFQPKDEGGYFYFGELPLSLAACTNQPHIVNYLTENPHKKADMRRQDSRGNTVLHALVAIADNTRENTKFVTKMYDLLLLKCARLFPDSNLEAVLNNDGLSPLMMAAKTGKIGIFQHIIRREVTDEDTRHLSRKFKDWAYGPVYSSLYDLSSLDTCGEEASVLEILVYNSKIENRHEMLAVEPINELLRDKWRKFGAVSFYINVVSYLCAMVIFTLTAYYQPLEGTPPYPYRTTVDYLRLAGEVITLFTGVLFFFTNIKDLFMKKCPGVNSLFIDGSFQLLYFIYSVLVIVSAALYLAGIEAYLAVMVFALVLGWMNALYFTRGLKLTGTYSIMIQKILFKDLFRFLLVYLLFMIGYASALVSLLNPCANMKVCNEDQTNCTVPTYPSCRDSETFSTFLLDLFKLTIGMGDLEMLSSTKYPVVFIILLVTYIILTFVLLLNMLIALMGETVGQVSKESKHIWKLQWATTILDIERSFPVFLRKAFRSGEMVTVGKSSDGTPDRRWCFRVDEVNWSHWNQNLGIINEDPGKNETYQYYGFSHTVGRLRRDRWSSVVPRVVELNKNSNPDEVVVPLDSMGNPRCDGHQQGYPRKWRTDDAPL

| Structure (SMILES) | Intracellular Ca^2+ influx rate (%) [1] | Intracellular Ca^2+ influx rate (%) [2] | calcium ion influx caused by the TRPV4 agonist (result in words) | Intracellular Ca^2+ influx rate (%) (sample 10 μM + GSK1016790a 3 nM) |
| --- | --- | --- | --- | --- |
| COc1ccc(CC(OC(=O)/C=C/c2ccc(O)c(OC)c2)C(=O)O)cc1O (stereo not shown) [4,3′-DiMe-RA, (E)-3-(3-hydroxy-4-methoxyphenyl)-2-{[3-(4-hydroxy-3-methoxyphenyl)acryloyl]oxy}propionic acid] | 85.31 ± 8.14 (P < 0.05) % | 81.02 ± 1.18 (P < 0.01) % | significantly reduced the calcium ion influx | – |
| COc1ccc(/C=C/C(=O)OC(Cc2ccc(OC)c(O)c2)C(=O)O)cc1O (stereo not shown) [4,4′-DiMe-RA, (E)-3-(3-hydroxy-4-methoxyphenyl)-2-{[3-(3-hydroxy-4-methoxyphenyl)acryloyl]oxy}propionic acid] | 83.19 ± 4.69 (P < 0.05) % | 75.87 ± 3.39 (P < 0.001) % | significantly reduced the calcium ion influx | – |
| COc1ccc(/C=C/C(=O)OC(Cc2ccc(O)c(O)c2)C(=O)O)cc1OC (stereo not shown) [3′,4′-DiMe-RA, (E)-3-(3,4-dihydroxyphenyl)-2-{[3-(3,4-dimethoxyphenyl)acryloyl]oxy}propionic acid] | 78.81 ± 3.67 (P < 0.01) % | 81.74 ± 1.18 (P < 0.01) % | significantly reduced the calcium ion influx | – |
| Cc1c(C(=O)Nc2cccc(C(F)(F)F)c2)cc(-c2ccccc2)n1CCCN1CCOCC1 [HC067047, reference compound] | – | – | – | 0.63 ± 0.14 (P < 0.001) % |
| COc1ccc(CC(OC(=O)/C=C/c2ccc(O)c(O)c2)C(=O)O)cc1OC (stereo not shown) [3,4-DiMe-RA, (E)-3-(3,4-dimethoxyphenyl)-2-{[3-(3,4-dihydroxyphenyl)acryloyl]oxy}propionic acid] | 80.66 ± 1.58 (P < 0.01) % | 78.99 ± 3.27 (P < 0.01) % | significantly reduced the calcium ion influx | – |
